Test results reported in patent US11643413B2, “9-(2-oxacycloalkyl)-9H-purine-2,6-diamine derivatives and their use for the treatment of skin disorders” (UNIVERZITA PALACKEHO V OLOMOUCI, priority 2017, dated 2023).
Structures can show the parent of a compound that is named as a salt. Where two headings read alike, the source gives them in different places.

Tests used:
NIH3T3 fibroblasts = assay: Peroxidation of membrane lipids, MDA by TBA method; format: cell-based, mouse; details: FW = fresh weight
Protocol: A typical symptom associated with aging is the direct consequence of increased concentrations of reactive oxygen species and lipid peroxidation. […] MDA levels were measured using thiobarbituric acid (TBA method). […] The crude extract was centrifuged at 10,000×g for 5 minutes and 100 μl aliquots of the supernatant were mixed with 100 μl of 0.5% (w/v) TBA containing 0.1% (w/v) trichloroacetic acid. The resulting solution was then incubated for 30 min at 95° C. The samples were rapidly cooled on ice and centrifuged for 5 minutes at 1000×g. […] The newly prepared derivatives of the general formula thus have a protective function against the negative effects of reactive oxygen species that accumulate strongly in the tissues.

[1] = tested on: BJ (human foreskin fibroblasts); assay: Calcein AM cytotoxicity, BJ; details: read-out: Cytotoxicity IC50, BJ; 72 hours incubation, Calcein AM; highest concentration […]
From the text: (§1) One of the parameters used, as the basis for cytotoxicity assays, is the metabolic activity of viable cells. For example, a microtiter assay, which uses the Calcein AM, is now widely used to quantitate cell proliferation and cytotoxicity. […] Because only metabolically active cells cleave Calcein AM, these assays detect viable cells exclusively. The quantity of reduced Calcein AM corresponds to the number of vital cells in the culture.
(§2) Mouse fibroblasts NIH3T3; mouse immortalized bone marrow macrophages B2.4 and B10A.4, and BJ (human foreskin fibroblasts) were used for routine screening of compounds. The cells were maintained in Nunc/Corning 80 cm^2 plastic tissue culture flasks and cultured in cell culture medium (DMEM with 5 g/l glucose, 2 mM glutamine, 100 U/ml penicillin, 100 μg/ml streptomycin, 10% fetal calf serum and sodium bicarbonate).
(§3) The cell suspensions that were prepared and diluted according to the particular cell type and the expected target cell density (2.500-30.000 cells per well based on cell growth characteristics) were added by pipette (80 μl) into 96/well microtiter plates. Inoculates were allowed a pre-incubation period of 24 hours at 37° C. and 5% CO2 for stabilisation. Four-fold dilutions of the intended test concentration were added at time zero in 20 μl aliquots to the microtiter plate wells. Usually, the compound tested was evaluated at six 4-fold dilutions. […] All compound concentrations were examined in duplicates. Incubations of cells with the tested compounds lasted for 72 hours at 37° C., in 5% CO2 atmosphere and 100% humidity. At the end of the incubation period, the cells were assayed by using Calcein AM. Ten microliters of the stock solution were pipetted into each well and incubated for 1 hour. Fluorescence (FD) was measured with the Labsystem FIA Reader Fluoroscan Ascent (UK).

B10A.4 [2] = assay: Calcein AM cytotoxicity, B10A.4 (first column); details: read-out: Cytotoxicity IC50, B10A.4; 72 hours incubation, Calcein AM; highest concentration […]
From the text: as §1, §2, §3

NIH-3T3 [3] = assay: Calcein AM cytotoxicity, NIH-3T3; details: read-out: Cytotoxicity IC50, NIH-3T3; 72 hours incubation, Calcein AM; highest concentration […]
From the text: as §1, §2, §3

[4] = Calcein AM cytotoxicity, BJ; details: human, BJ foreskin fibroblasts
From the text: as §1, §2, §3

[5] = Calcein AM cytotoxicity, B10A.4 (first column); details: mouse, B10A.4 immortalized bone marrow macrophages
From the text: as §1, §2, §3

[6] = Radical scavenging activity determined by ORAC; details: relative to trolox; Mean ± SD (n = 3)
Protocol: The ability of compounds to scavenge free radicals in vitro was determined by Oxygen Radical Absorbance Capacity (ORAC) method. In brief, fluorescein (100 μl, […]) and 25 μl of compound solution were added into each working well in a 96-well microplate preincubated at 37° C. Thereafter, 25 μL of 250 mM AAPH was quickly added, microplate was shaken for 5 s and the fluorescence (Ex. 485 nm, Em. 510 nm) was read every 3 min over 90 min by using microplate reader Infinite 200 (TECAN, Switzerland). The net area under the curve was used to express antioxidant activity relative to trolox which was used as a standard.

[7] = Calcein AM cytotoxicity, NIH-3T3; details: mouse, NIH-3T3 fibroblasts
From the text: as §1, §2, §3

NIH-3T3 [8] = tested on: NIH-3T3
From the text: as §1, §2, §3

[9] = tested on: BJ (human foreskin fibroblasts)
From the text: as §1, §2, §3

B10A.4 [10] = tested on: B10A.4
From the text: as §1, §2, §3

[11] = tested on: Rabbits (New Zealand Albino breed); details: New Zealand Albino, rabbit, in vivo, 4 h
Protocol: The test substance 114 was tested in Animal skin irritation test. Rabbits (New Zealand Albino breed) were used for the test. The test was performed according to ČSN EN ISO 10993 (Březen 2014): Biologické hodnoceni zdravotnických prostředků—část 10: Zkoušky dráždivosti a senzibilizace kůže, článek 6.3 Zkouška dráždivosti na zviřatech (Biological evaluation of medical devices—Part 10: Tests for irritation and delayed-type hypersensitivity). A dose 0.5 g of the test substance was applied to the skin of the back on each side of each rabbit. […] At first the one rabbit (test animal. No. 16) was used. Two other rabbits (rabbit No. 17 and No. 18) were used in confirmatory test. At the end of the contact time (4 hours) the dressings were removed and animals were examined for signs of erythema and oedema, and the response was evaluated at 1, 24, 48 and 72 hours afterpatches removal.

Row | Structure (SMILES) | IC50 (NIH-3T3 [8]) [µM] | IC50 [9] [µM] | IC50 (B10A.4 [10]) [µM] | MDA (NIH3T3 fibroblasts) [nmol/g FW] | further results
1 | CN(C)c1nc(NCc2ccco2)c2ncn(C3CCO3)c2n1 (stereo not shown) [Compound 3] | – | – | – | 12.4 | IC50 [1]: > 167 µM; IC50 (B10A.4 [2]): > 167 µM; IC50 (NIH-3T3 [3]): > 167 µM
2 | CCN(CC)c1nc(NCc2ccccc2)c2ncn(C3CCO3)c2n1 (stereo not shown) [Compound 9] | – | – | – | 12.2 | IC50 [1]: > 167 µM; IC50 (B10A.4 [2]): > 167 µM; IC50 (NIH-3T3 [3]): > 167 µM
3 | CN(C)c1nc(NCc2ccco2)c2ncn(C3CCCO3)c2n1 (stereo not shown) [Compound 30, 2-(Dimethylamino)-6-furfurylamino-9-(tetrahydrofuran-2-yl)-9H-purine] | – | – | – | 12.6 | IC50 at 72 h [4]: > 167 µM; IC50 at 72 h [5]: > 167 µM; ORAC (compound/trolox) [6]: 0.292 ± 0.006; IC50 at 72 h [7]: > 167 µM
4 | CNc1nc(NCc2cc(C)co2)c2ncn(C3CCCO3)c2n1 (stereo not shown) [Compound 39] | > 167 | > 167 | > 167 | 11.4 | –
5 | CCN(CC)c1nc(NCc2ccc(C)o2)c2ncn(C3CCCO3)c2n1 (stereo not shown) [Compound 47] | > 167 | > 167 | > 167 | 12.5 | –
6 | COc1coc(CNc2nc(NCCN(C)C)nc3c2ncn3C2CCCO2)c1 (stereo not shown) [Compound 58] | > 167 | > 167 | > 167 | 11.4 | –
7 | CNc1nc(NCc2ccc(OC)o2)c2ncn(C3CCCO3)c2n1 (stereo not shown) [Compound 59] | > 167 | > 167 | > 167 | 11.5 | –
8 | CNc1nc(NCc2ccccc2)c2ncn(C3CCCO3)c2n1 (stereo not shown) [Compound 64, 2-(Methylamino)-6-benzylamino-9-(tetrahydrofuran-2-yl)-9H-purine] | – | – | – | – | ORAC (compound/trolox) [6]: 0.24 ± 0.001
9 | CN(C)c1nc(NCc2cccc(O)c2)c2ncn(C3CCCO3)c2n1 (stereo not shown) [Compound 71, 2-(Dimethylamino)-6-(3-hydroxybenzylamino)-9-(tetrahydrofuran-2-yl)-9H-purine] | – | – | – | – | ORAC (compound/trolox) [6]: 5.212 ± 0.238
10 | CN(C)c1nc(NCc2ccc(O)cc2)c2ncn(C3CCCO3)c2n1 (stereo not shown) [Compound 76, 2-(Dimethylamino)-6-[(4-hydroxybenzyl)amino]-9-(tetrahydrofuran-2-yl)-9H-purine] | – | – | – | – | ORAC (compound/trolox) [6]: 0.192 ± 0.005
11 | CNc1nc(NCc2ccc(OC)cc2)c2ncn(C3CCCO3)c2n1 (stereo not shown) [Compound 84, 2-(Methylamino)-6-[(4-methoxybenzyl)amino]-9-(tetrahydrofuran-2-yl)-9H-purine] | – | – | – | 10.6 | IC50 at 72 h [4]: > 167 µM; IC50 at 72 h [5]: > 167 µM; IC50 at 72 h [7]: > 167 µM
12 | COc1cc(CNc2nc(N(C)C)nc3c2ncn3C2CCCO2)ccc1O (stereo not shown) [Compound 89, 2-(Dimethylamino)-6-[(4-hydroxy-3-methoxybenzyl)amino]-9-(tetrahydrofuran-2-yl)-9H-purine] | – | – | – | – | ORAC (compound/trolox) [6]: 4.359 ± 0.183
13 | CNc1nc(NCc2ccco2)c2ncn(C3CCCCO3)c2n1 (stereo not shown) [Compound 110, 2-(Methylamino)-6-furfurylamino-9-(tetrahydro-2H-pyran-2-yl)-9H-purine] | – | – | – | – | ORAC (compound/trolox) [6]: 0.205 ± 0.032
14 | CCNc1nc(NCc2ccco2)c2ncn(C3CCCCO3)c2n1 (stereo not shown) [Compound 111, 2-(ethylamino)-6-furfurylamino-9-(tetrahydro-2H-pyran-2-yl)-9H-purine] | – | – | – | 10.3 | IC50 at 72 h [4]: > 167 µM; IC50 at 72 h [5]: > 167 µM; IC50 at 72 h [7]: > 167 µM
15 | CCNc1nc(NCc2occc2C)c2ncn(C3CCCCO3)c2n1 (stereo not shown) [Compound 119] | – | – | – | 9.7 | IC50 [1]: > 167 µM; IC50 (B10A.4 [2]): > 167 µM; IC50 (NIH-3T3 [3]): > 167 µM
16 | Cc1coc(CNc2nc(NCCN(C)C)nc3c2ncn3C2CCCCO2)c1 (stereo not shown) [Compound 127] | – | – | – | 10.4 | IC50 [1]: > 167 µM; IC50 (B10A.4 [2]): > 167 µM; IC50 (NIH-3T3 [3]): > 167 µM
17 | CNc1nc(NCc2ccc(C)o2)c2ncn(C3CCCCO3)c2n1 (stereo not shown) [Compound 128, 2-(Methylamino)-6-[(5-methylfurfuryl)amino]-9-(tetrahydro-2H-pyran-2-yl)-9H-purine] | – | – | – | – | ORAC (compound/trolox) [6]: 0.461 ± 0.003
18 | Cc1ccc(CNc2nc(NCCN(C)C)nc3c2ncn3C2CCCCO2)o1 (stereo not shown) [Compound 132] | – | – | – | 10.7 | IC50 [1]: > 167 µM; IC50 (B10A.4 [2]): > 167 µM; IC50 (NIH-3T3 [3]): > 167 µM
19 | CN(C)c1nc(NCc2cccc(O)c2)c2ncn(C3CCCCO3)c2n1 (stereo not shown) [Compound 155, 2-(Dimethylamino)-6-[(3-hydroxybenzyl)amino]-9-(tetrahydro-2H-pyran-2-yl)-9H-purine] | – | – | – | – | ORAC (compound/trolox) [6]: 2.422 ± 0.107
20 | CN(C)c1nc(NCc2ccc(O)cc2)c2ncn(C3CCCCO3)c2n1 (stereo not shown) [Compound 160, 2-(Dimethylamino)-6-[(4-hydroxybenzyl)amino]-9-(tetrahydro-2H-pyran-2-yl)-9H-purine] | – | – | – | – | ORAC (compound/trolox) [6]: 0.728 ± 0.016
21 | CCCCCCCCCCCCOS(=O)(=O)O [lauryl sulfate, reference compound] | – | – | – | – | Primary Irritation Index [11]: 1.67

Further lines, with some results ahead:

Row | IC50 (NIH-3T3 [8]) [µM] | IC50 [9] [µM] | IC50 (B10A.4 [10]) [µM] | Structure (SMILES) | MDA (NIH3T3 fibroblasts) [nmol/g FW] | further results
22 | > 167 | > 167 | > 167 | CCNc1nc(NCc2ccc(OC)o2)c2ncn(C3CCCO3)c2n1 (stereo not shown) [Compound 60] | 12.2 | –
23 | > 167 | > 167 | > 167 | CCNc1nc(NCc2ccc(O)cc2)c2ncn(C3CCCO3)c2n1 (stereo not shown) [Compound 75] | 11.7 | –
24 | > 167 | > 167 | > 167 | CCN(CC)c1nc(NCc2cccc(OC)c2)c2ncn(C3CCCO3)c2n1 (stereo not shown) [Compound 82] | 10.9 | –
25 | > 167 | > 167 | > 167 | CCNc1nc(NCc2ccc(OC)cc2)c2ncn(C3CCCO3)c2n1 (stereo not shown) [Compound 85] | 11.1 | –
26 | > 167 | > 167 | > 167 | CCN(CC)c1nc(NCc2ccc(OC)cc2)c2ncn(C3CCCO3)c2n1 (stereo not shown) [Compound 87] | 10.4 | –
27 | > 167 | > 167 | > 167 | CCN(CC)c1nc(NCC=C(C)C)c2ncn(C3CCCO3)c2n1 (stereo not shown) [Compound 93] | 10.5 | –
28 | > 167 | > 167 | > 167 | C/C(=C\CNc1nc(NCCN(C)C)nc2c1ncn2C1CCCO1)CO (stereo not shown) [Compound 99] | 10.2 | –
29 | > 167 | > 167 | > 167 | CCNc1nc(NC/C=C(/C)CO)c2ncn(C3CCCO3)c2n1 (stereo not shown) [Compound 101] | 10.6 | –
30 | > 167 | > 167 | > 167 | CCN(CC)c1nc(NC/C=C(/C)CO)c2ncn(C3CCCO3)c2n1 (stereo not shown) [Compound 103] | 10.1 | –
31 | > 167 | > 167 | > 167 | C/C(=C/CNc1nc(NCCN(C)C)nc2c1ncn2C1CCCO1)CO (stereo not shown) [Compound 104] | 9.6 | –
32 | > 167 | > 167 | > 167 | CNc1nc(NCCC(C)CO)c2ncn(C3CCCO3)c2n1 (stereo not shown) [Compound 105] | 10.6 | –
33 | > 167 | > 167 | > 167 | CC(CO)CCNc1nc(N(C)C)nc2c1ncn2C1CCCO1 (stereo not shown) [Compound 107] | 10.3 | –
34 | > 167 | > 167 | > 167 | CCN(CC)c1nc(NCCC(C)CO)c2ncn(C3CCCO3)c2n1 (stereo not shown) [Compound 108] | 9.7 | –
35 | 94.1 | 108 | – | Oc1ccccc1CNc1ncnc2nc[nH]c12 [ortho-topolin, reference compound] | – | –
